# According to patent US20210255184A1, “Biosensor Device and Methods” (The New Zealand Institute for Plant and Food Research …, priority 2018, published 2021):
# Experiments:
# Or22a/Orco = molecular target: T1, Or22a/Orco (Drosophila melanogaster, UniProt P81909); assay: GFET sensor, Or22a/Orco liposomes; assay type: biochemical; conditions: Table 4, GFET
# T1 construct: his-tag; made in house; host or cells: baculovirus-infected Sf9 cells
# T1 sequence (P81909 1-397): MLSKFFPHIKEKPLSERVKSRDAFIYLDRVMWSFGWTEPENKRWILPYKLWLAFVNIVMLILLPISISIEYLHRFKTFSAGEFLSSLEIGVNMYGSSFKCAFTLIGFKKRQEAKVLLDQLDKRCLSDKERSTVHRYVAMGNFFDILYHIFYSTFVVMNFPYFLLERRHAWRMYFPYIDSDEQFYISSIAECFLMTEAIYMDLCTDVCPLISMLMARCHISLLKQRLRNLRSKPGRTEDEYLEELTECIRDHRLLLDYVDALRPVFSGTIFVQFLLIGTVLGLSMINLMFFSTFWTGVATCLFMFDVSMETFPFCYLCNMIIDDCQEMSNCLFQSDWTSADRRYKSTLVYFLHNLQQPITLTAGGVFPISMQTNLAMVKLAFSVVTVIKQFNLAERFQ
# T1 sequence (Q9VNB5 1-486 partner): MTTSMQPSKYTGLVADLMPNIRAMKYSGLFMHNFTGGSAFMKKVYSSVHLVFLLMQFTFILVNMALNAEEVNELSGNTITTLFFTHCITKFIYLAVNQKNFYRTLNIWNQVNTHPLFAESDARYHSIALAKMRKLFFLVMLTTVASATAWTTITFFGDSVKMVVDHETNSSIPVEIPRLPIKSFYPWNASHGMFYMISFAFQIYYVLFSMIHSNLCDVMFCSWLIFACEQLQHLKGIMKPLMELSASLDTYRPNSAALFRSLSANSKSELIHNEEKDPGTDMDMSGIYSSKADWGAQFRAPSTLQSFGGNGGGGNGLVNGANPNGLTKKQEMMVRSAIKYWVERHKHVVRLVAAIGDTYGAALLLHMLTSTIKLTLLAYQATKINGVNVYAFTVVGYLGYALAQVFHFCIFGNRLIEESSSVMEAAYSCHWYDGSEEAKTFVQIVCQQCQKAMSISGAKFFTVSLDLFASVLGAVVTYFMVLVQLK
# Text: (§1) The GFETs used in this study were fabricated from a predeposited graphene film on 300 nm SiO2 coated Si substrate from ACS Suppliers, USA. The FETs consist of a channel with dimensions of 100 μm width and […]. The key steps involved in fabricating the GFET on a Si/SiO2 substrate is schematically illustrated in FIG. 12. The source and drain electrodes were defined by photolithography and formed by successive deposition of Cr and Au. Both the drain and source electrodes were then encapsulated using AZ1518 photoresist and a channel with dimensions of 100 μm width and 10 μm length was left open to the environment for gating and functionalisation.
# (§2) The OR liposomes were functionalised onto the graphene surface via a non-covalent route using PBASE as the molecular linker as shown in FIG. 13. The OR liposomes were diluted at 1:10 ratio with 1×PBS (pH7.4). The cleaned GFETs were immersed in 1 mM PBASE solution in methanol for 1 hour. […]
# (§3) Electrical sensor measurements of OR liposome functionalised GFETs were carried out using top liquid gate morphology as shown in the schematic in FIG. 15 (a). […] The transfer characteristics of the different graphene FETs (FIG. 15 (b) to (g)) were measured at Vds=1 mV while the liquid gate voltage Vlg was swept from −0.5 V to 1 V with an interval of 20 mV. […]
# Or10a/Orco = molecular target: T2, Or10a/Orco (Drosophila melanogaster, UniProt Q9VYZ1); assay: GFET sensor, Or10a/Orco liposomes; assay type: biochemical; conditions: Table 4, GFET
# T2 construct: his-tag; made in house; host or cells: baculovirus-infected Sf9 cells
# T2 sequence (Q9VYZ1 1-406): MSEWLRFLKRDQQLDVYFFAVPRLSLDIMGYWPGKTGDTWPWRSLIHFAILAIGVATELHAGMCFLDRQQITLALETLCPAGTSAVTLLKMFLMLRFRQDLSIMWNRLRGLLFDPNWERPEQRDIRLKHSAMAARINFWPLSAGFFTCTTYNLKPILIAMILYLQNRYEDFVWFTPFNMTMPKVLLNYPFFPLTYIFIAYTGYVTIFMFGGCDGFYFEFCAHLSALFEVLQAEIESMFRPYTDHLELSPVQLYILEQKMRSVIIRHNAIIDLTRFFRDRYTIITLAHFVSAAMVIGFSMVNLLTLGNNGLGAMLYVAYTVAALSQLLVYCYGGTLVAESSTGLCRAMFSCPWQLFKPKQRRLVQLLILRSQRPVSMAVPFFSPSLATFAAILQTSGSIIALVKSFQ
# T2 sequence (Q9VNB5 1-486 partner): T1 sequence (Q9VNB5 1-486 partner)
# Text: as §1, §2, §3
SMILES,Detection Range (Or22a/Orco),EC50 (Or22a/Orco) [pM],Detection Range (Or10a/Orco),EC50 (Or10a/Orco) [pM]
CCCCCC(=O)OC [methyl hexanoate],10^−13-10^−8 M,3.91,,
COC(=O)c1ccccc1O [methyl salicylate],,,10^−13-10^−8 M,2.07
